Among the data in ChEMBL document CHEMBL1150913, “Novel cytotoxic cembranoids from the soft coral Sinularia flexibilis” (1998) are EC50 values, retold here.

Assay type in all cases: functional
The subject of one experiment is HT-29. Kind of experiment: Cytotoxicity against human HT-29 cells after 6 days by MTT assay. To be noted: HT-29, 144 h, read-out: ED50 (the source's name).
The next experiment relates to KB. Kind of experiment: Cytotoxicity against human KB cells after 3 days by MTT assay. As to conditions: 72 h, read-out: ED50 (the source's name).
Another experiment relates to A549. The experiment is described as follows: Cytotoxicity against human A549 cells after 6 days by MTT assay. To be noted: A549, 144 h, read-out: ED50 (the source's name). For orientation: Tetrazolium dyes change colour on reduction, which living cells bring about.
The next experiment relates to P388. Kind of experiment: Cytotoxicity against mouse P388 cells after 3 days by MTT assay. To be noted: P388, 72 h, read-out: ED50 (the source's name).

≈ marks a conversion by molar mass, not a printed value.

Consider `C/C1=C\CC[C@@](C)(O)[C@H]2C[C@H](CC[C@](C)(O)[C@H](O)CC1)[C@@H](C)C(=O)O2` [DIHYDROSINUFLEXOLIDE], for which the EC50 in the experiment on HT-29 was 32.4 µg/mL (≈ 91.4 µM); in the experiment with KB, over 50 µg/mL; in the experiment on A549, 16.8 µg/mL (≈ 47.4 µM); with P388, 3.86 µg/mL (≈ 10.9 µM).
The like results for `C=C(C(=O)OC)[C@H]1CC[C@](C)(O)[C@H](O)CC/C(C)=C/CC[C@@](C)(O)[C@@H](O)C1` [SINUFLEXIBILIN] were, in that order, 0.22 µg/mL (≈ 0.572 µM), 1.73 µg/mL (≈ 4.5 µM), 0.72 µg/mL (≈ 1.87 µM) and 0.27 µg/mL (≈ 0.702 µM).
In the case of `C=C1C(=O)O[C@@H]2C[C@@H]1CC[C@](C)(O)[C@H](O)CC/C(C)=C/CC[C@@]2(C)O` [SINUFLEXOLIDE], the EC50 in the experiment on HT-29 was determined as 0.39 µg/mL (≈ 1.11 µM); in the experiment with KB it was 0.46 µg/mL (≈ 1.31 µM); in the experiment on A549, 0.68 µg/mL (≈ 1.93 µM); in the experiment with P388, 0.16 µg/mL (≈ 0.454 µM).
